Measured values as given in PubChem BioAssay AID2060889 (Molecular Pharmacology Branch, DTP, NCI, 2025).

Test system: LG0567-F671-PDC complex spheroids viability
Experiment: Anticancer human tumor LG0567-F671-PDC patient-derived lung adenocarcinoma cell line growth inhibition [RAS]
Details: for viability, T/C: stronger effect = lower value
Procedure, shortened: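 Agents were tested in combination matrices in half-log decrements from a top concentration at or near clinical Cmax (10 microM if undetermined). Targets were multi-cell spheroids of tumour lines plus HUVEC and MSC stromal cells.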
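Also: spheroids exposed to compound for seven days before readout.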
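For IC50 in this document: luminescence signal used as a proxy for viable cells.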

Compound: C[C@@H](NC(=O)c1ncnc(N)c1Cl)c1ncc(C(=O)Nc2cc(C(F)(F)F)c(Cl)cn2)s1 + C#Cc1c(F)ccc2cc(O)cc(-c3ncc4c(N5CC6CCC(C5)N6)nc(OCC56CCCN5CC(F)C6)nc4c3F)c12
- IC50 (curve of first compound, second compound 0.0316 µM): > 10000 nM
- IC50 (curve of first compound, second compound 0.1 µM): > 10000 nM
- IC50 (curve of first compound, second compound 0.316 µM): 7540 nM
- IC50 (curve of first compound, second compound 1 µM): < 31.6 nM
- IC50 (curve of first compound, second compound 3.16 µM): < 31.6 nM
- IC50 (curve of first compound, second compound 10 µM): < 31.6 nM
- viability, T/C (second compound 0.0316 µM, first compound 0.0316 µM): 99.1%
- viability, T/C (second compound 0.0316 µM, first compound 0.1 µM): 100%
- viability, T/C (second compound 0.0316 µM, first compound 0.316 µM): 125%
- viability, T/C (second compound 0.0316 µM, first compound 1 µM): 103%
- viability, T/C (second compound 0.0316 µM, first compound 3.16 µM): 94.9%
- viability, T/C (second compound 0.0316 µM, first compound 10 µM): 56.1%
- viability, T/C (second compound 0.1 µM, first compound 0.0316 µM): 81.2%
- viability, T/C (second compound 0.1 µM, first compound 0.1 µM): 105%
- viability, T/C (second compound 0.1 µM, first compound 0.316 µM): 88.8%
- viability, T/C (second compound 0.1 µM, first compound 1 µM): 92.8%
- viability, T/C (second compound 0.1 µM, first compound 3.16 µM): 82%
- viability, T/C (second compound 0.1 µM, first compound 10 µM): 57%
- viability, T/C (second compound 0.316 µM, first compound 0.0316 µM): 73.5%
- viability, T/C (second compound 0.316 µM, first compound 0.1 µM): 80.9%
- viability, T/C (second compound 0.316 µM, first compound 0.316 µM): 74.2%
- viability, T/C (second compound 0.316 µM, first compound 1 µM): 67.7%
- viability, T/C (second compound 0.316 µM, first compound 3.16 µM): 67%
- viability, T/C (second compound 0.316 µM, first compound 10 µM): 44.7%
- viability, T/C (second compound 1 µM, first compound 0.0316 µM): 40.5%
- viability, T/C (second compound 1 µM, first compound 0.1 µM): 43.7%
- viability, T/C (second compound 1 µM, first compound 0.316 µM): 52.5%
- viability, T/C (second compound 1 µM, first compound 1 µM): 42.5%
- viability, T/C (second compound 1 µM, first compound 3.16 µM): 51.8%
- viability, T/C (second compound 1 µM, first compound 10 µM): 34%
- viability, T/C (second compound 3.16 µM, first compound 0.0316 µM): 26.1%
- viability, T/C (second compound 3.16 µM, first compound 0.1 µM): 28.6%
- viability, T/C (second compound 3.16 µM, first compound 0.316 µM): 29.2%
- viability, T/C (second compound 3.16 µM, first compound 1 µM): 25.6%
- viability, T/C (second compound 3.16 µM, first compound 3.16 µM): 26.6%
- viability, T/C (second compound 3.16 µM, first compound 10 µM): 23.2%
- viability, T/C (second compound 10 µM, first compound 0.0316 µM): 14.9%
- viability, T/C (second compound 10 µM, first compound 0.1 µM): 17.1%
- viability, T/C (second compound 10 µM, first compound 0.316 µM): 16.5%
- viability, T/C (second compound 10 µM, first compound 1 µM): 19.4%
- viability, T/C (second compound 10 µM, first compound 3.16 µM): 21.2%
- viability, T/C (second compound 10 µM, first compound 10 µM): 17.9%

Compound: CC(C)NCC(C(=O)N1CCN(c2ncnc3c2C(C)CC3O)CC1)c1ccc(Cl)cc1 (stereo not drawn) + CCn1c(-c2cccnc2C(C)OC)c2c3cc(ccc31)N1CCOC(CC(NC(=O)C(C(C)C)N(C)C(=O)C3(F)CCN(C(=O)C#CC(C)(C)N(C)C)CC3)C(=O)N3CCCC(N3)C(=O)OCC(C)(C)C2)C1
- IC50 (curve of first compound, second compound 0.000949 µM): < 31.6 nM
- IC50 (curve of first compound, second compound 0.003 µM): < 31.6 nM
- IC50 (curve of first compound, second compound 0.00949 µM): < 31.6 nM
- IC50 (curve of first compound, second compound 0.03 µM): < 31.6 nM
- IC50 (curve of first compound, second compound 0.0949 µM): < 31.6 nM
- IC50 (curve of first compound, second compound 0.3 µM): < 31.6 nM
- viability, T/C (second compound 0.000949 µM, first compound 0.0316 µM): 11.2%
- viability, T/C (second compound 0.000949 µM, first compound 0.1 µM): 13.7%
- viability, T/C (second compound 0.000949 µM, first compound 0.316 µM): 12.3%
- viability, T/C (second compound 0.000949 µM, first compound 1 µM): 12.3%
- viability, T/C (second compound 0.000949 µM, first compound 3.16 µM): 8.16%
- viability, T/C (second compound 0.000949 µM, first compound 10 µM): 8.26%
- viability, T/C (second compound 0.003 µM, first compound 0.0316 µM): 12.4%
- viability, T/C (second compound 0.003 µM, first compound 0.1 µM): 11.7%
- viability, T/C (second compound 0.003 µM, first compound 0.316 µM): 11.7%
- viability, T/C (second compound 0.003 µM, first compound 1 µM): 10.8%
- viability, T/C (second compound 0.003 µM, first compound 3.16 µM): 8.33%
- viability, T/C (second compound 0.003 µM, first compound 10 µM): 7.72%
- viability, T/C (second compound 0.00949 µM, first compound 0.0316 µM): 11%
- viability, T/C (second compound 0.00949 µM, first compound 0.1 µM): 11.3%
- viability, T/C (second compound 0.00949 µM, first compound 0.316 µM): 12.6%
- viability, T/C (second compound 0.00949 µM, first compound 1 µM): 10.1%
- viability, T/C (second compound 0.00949 µM, first compound 3.16 µM): 8.54%
- viability, T/C (second compound 0.00949 µM, first compound 10 µM): 7.28%
- viability, T/C (second compound 0.03 µM, first compound 0.0316 µM): 11.5%
- viability, T/C (second compound 0.03 µM, first compound 0.1 µM): 10.2%
- viability, T/C (second compound 0.03 µM, first compound 0.316 µM): 12.5%
- viability, T/C (second compound 0.03 µM, first compound 1 µM): 8.64%
- viability, T/C (second compound 0.03 µM, first compound 3.16 µM): 7.32%
- viability, T/C (second compound 0.03 µM, first compound 10 µM): 7.5%
- viability, T/C (second compound 0.0949 µM, first compound 0.0316 µM): 9.18%
- viability, T/C (second compound 0.0949 µM, first compound 0.1 µM): 10.3%
- viability, T/C (second compound 0.0949 µM, first compound 0.316 µM): 10.3%
- viability, T/C (second compound 0.0949 µM, first compound 1 µM): 8.97%
- viability, T/C (second compound 0.0949 µM, first compound 3.16 µM): 6.83%
- viability, T/C (second compound 0.0949 µM, first compound 10 µM): 6.43%
- viability, T/C (second compound 0.3 µM, first compound 0.0316 µM): 8.3%
- viability, T/C (second compound 0.3 µM, first compound 0.1 µM): 10.2%
- viability, T/C (second compound 0.3 µM, first compound 0.316 µM): 8.96%
- viability, T/C (second compound 0.3 µM, first compound 1 µM): 6.59%
- viability, T/C (second compound 0.3 µM, first compound 3.16 µM): 6.6%
- viability, T/C (second compound 0.3 µM, first compound 10 µM): 5.25%

Compound: CCn1c(-c2cc(N3CCN(C)CC3)cnc2C(C)OC)c2c3cc(ccc31)-c1csc(n1)CC(NC(=O)C1CC1C)C(=O)N1CCCC(N1)C(=O)OCC(C)(C)C2 (stereo not drawn)
- viability, T/C (compound 0.000949 µM): 25.7% [middle of 8 runs]
- viability, T/C (compound 0.003 µM): 11.3% [middle of 8 runs]
- viability, T/C (compound 0.00949 µM): 6.53% [middle of 8 runs]
- viability, T/C (compound 0.03 µM): 4.27% [middle of 8 runs]
- viability, T/C (compound 0.0949 µM): 3.45% [middle of 8 runs]
- viability, T/C (compound 0.3 µM): 2.94% [middle of 8 runs]
- IC50 (compound alone, run of 08/26/2024): < 0.949 nM

Compound: O=C(c1ccc(F)c(F)c1Nc1ccc(I)cc1F)N1CC(O)([C@@H]2CCCCN2)C1
- viability, T/C (compound 0.00316 µM): 85.1% [middle of 4 runs]
- viability, T/C (compound 0.01 µM): 58.9% [middle of 4 runs]
- viability, T/C (compound 0.0316 µM): 39.8% [middle of 4 runs]
- viability, T/C (compound 0.1 µM): 24% [middle of 4 runs]
- viability, T/C (compound 0.316 µM): 11.1% [middle of 4 runs]
- viability, T/C (compound 1 µM): 3.21% [middle of 4 runs]
- IC50 (curve of compound): 17.3 nM [middle of 4 runs]
